Legend:
leukocyte [1] = test: Protection on decrease of leukocyte induced by harringtonine chemotherapy; format: in vivo, Swiss mice; conditions: HRTN 1 mg/kg ip × 1, 5, 9
Method: (§1) 80 Swiss mice were divided into eight groups at random, were administered with cyclophosphamide at 45 mg/kg ip×3 (second, sixth and tenth), or harringtonine (HRTN) at 1 mg/kg ip×3 (second, sixth and tenth). To each of two of the medicine groups were administered NLEJ emulsion at the same time, at doses of 2.4 ml/kg and 6.25 ml/kg iv×7 (every day). At the beginning and on the fourth day of each administration, blood was sampled from the angle of each mouse's eye, and leukocytes of the blood were counted.

sarcoma (S-180) = test: Anti-tumor effect on sarcoma (S-180) in vivo; set-up: species or system mice
Method: Sarcoma (S-180) tissues growing luxuriantly were prepared to be a cell suspension with physical saline 1:3(w/v). Mice were divided into groups at random the next day and were administered with doses of NLEJ emulsion of 25 ml/kg iv×7 (qd), doses of cyclophosphamide of 30 mg/kg ip×2 (second and fourth), doses of mitoxantrone (DHAD) of 2 mg/kg ip×2 (second and fourth), and doses of mitomycin of 1.5 mg/kg ip×2 (second and fourth). Tumor tissues from all treatments were sampled and weighed to calculate tumor inhibition ratios 14 days after inoculating.

[2] = test system: mouse Ehrlich ascites tumor; conditions: cited from earlier work
leukocyte [3] = test: Protection on decrease of leukocyte induced by cyclophosphamide chemotherapy; format: in vivo, Swiss mice; conditions: CTX 45 mg/kg ip × 1, 5, 9
Method: as §1

human hepatoma (QGY) = test: Growth of human hepatoma (QGY) in nude mice; format: in vivo, human (nude mouse); conditions: 30 mg/kg ip daily 7 days
Method: Hepatoma (QGY) tissues growing luxuriantly were homogenized in physical saline (1:4) and prepared as a suspension. Each nude mouse was inoculated subcutaneously with 0.2 ml of the suspension at its armpit. The nude mice were divided into groups at random the next day. The doses of NLEJ emulsion were 25 ml/kg, 12.5 ml/kg and 6.25 ml/kg. The emulsion was administrated intravenously at the tail of the nude mouse every day for 10 days. One group of mice were administered with cyclophosphamide (CTX) of a dose of 30 mg/kg intraperitoneally every day for 7 days. The nude mice of the control group were administered with a similar emulsion just absent the NLEJ (blank emulsion) at a dose of 25 ml/kg intravenously at the tail of the nude mouse every day for 10 days. Tumor tissues of all nude mice were sampled and weighed 30 days after inoculating.

melanoma (B16) = test: Metastasis of melanoma (B16) in lung in vivo; set-up: species or system C57BL/6 mouse; conditions: 100 mg/kg ip × 2 (3, 5)
Method: Melanoma B16 tissues growing at logarithmic stage were digested with 0.15% trypsin, and 0.2 ml suspension of 2.5×10^5 cells/ml in RPMI 1640 medium from the tissues was inoculated intravenously into the tail of each C57BL/6 mouse. Mice were divided into groups at random 3 days after inoculating and were administered different emulsions. Mice were killed 21 days after inoculating, and metastasized colonies of melanoma in mouse's lung were counted to calculate the inhibition ratio and compare the different effects of different administrations of NLEJ emulsion on metastasis of malanoma in lung. 100 mg/kg cyclophosphamide (CTX) was administered in the same way to compare with NLEJ emulsion.

[4] = test system: Walaer carcinosarcoma (solid) W256; test: Anti-tumor effect on Walaer carcinosarcoma (solid) W256 in vivo; set-up: species or system rat
Method: Ascites Walaer carcinosarcoma (solid) W256 tissues growing luxuriantly were digested to be a cell suspension. The cell suspension was regulated to have a 1-2×10^7 /ml cell density. 0.2 ml of the suspension was inoculated under the skin of armpit of each rat. The rats were divided into groups at random the next day and were administered with doses of NLEJ emulsion of 20 ml/kg, 10 ml/kg, 5 ml/kg iv×10 (qd), and doses of […], the doses of cyclophosphamide were 30 mg/kg iv×7 (qd), mg/kg iv×2 (third and fifth). Tumor tissues from all treatments were sampled and weighed to calculate tumor inhibition ratios 14 days after inoculating.

[5] = test system: human small cell lung cancer (SPC); test: Growth of human small cell lung cancer (SPC) in nude mice; format: in vivo, human (nude mouse); conditions: 40 mg/kg iv×10 (qd)
Method: SPC tumor tissues growing luxuriantly were cut into pieces of 2 mm, one of the pieces was inoculated under the skin of the armpit of each nude mouse. Nude mice were divided into groups at random the next day and one group was administered with the NLEJ emulsion at a dose of 25 ml/kg iv×10 (qd), one group of mice was administered with dacarbazine (DTIC) at a dose of 40 mg/kg iv×10 (qd), and the nude mice of the control group were administered with blank emulsion at a dose of 25 ml/kg iv×10 (qd). Tumor tissues of all nude mice were sampled and weighed 30 days after inoculating.

Compound: COC(=O)C[C@](O)(CCC(C)(C)O)C(=O)O[C@@H]1C(OC)=C[C@]23CCCN2CCc2cc4c(cc2[C@H]13)OCO4 [HRTN, harringtonine]
- Leucocyte number (leukocyte [1]; time 0): 60 × 100/mm^3
- Leucocyte number (leukocyte [1]; time 3): 75 × 100/mm^3
- Leucocyte number (leukocyte [1]; time 6): 65 × 100/mm^3
- Leucocyte number (leukocyte [1]; time 9): 50 × 100/mm^3
- Leucocyte number (leukocyte [1]; time 12): 44 × 100/mm^3
- Leucocyte number (leukocyte [1]; time 15): 43 × 100/mm^3
- Leucocyte number (leukocyte [1]; time 18): 49 × 100/mm^3
- Leucocyte number (leukocyte [1]; time 21): 53 × 100/mm^3
- Leucocyte number (leukocyte [1]; time 24): 56 × 100/mm^3

Compound: O=C1c2c(O)ccc(O)c2C(=O)c2c(NCCNCCO)ccc(NCCNCCO)c21 [DHAD, mitoxantrone]
- Inhibition (%) (sarcoma (S-180); 2 mg/kg ip × 2 (1, 3)): 50%

Compound: CO[C@@]12[C@H](COC(N)=O)C3=C(C(=O)C(C)=C(N)C3=O)N1C[C@@H]1N[C@@H]12 [Mitomycin, mitomycin]
- Inhibition (%) (sarcoma (S-180); 1.5 mg/kg ip × 2 (1, 3)): 39.4%

Compound: CCCCCC/C=C\CCCCCCCC(=O)O[C@H](C)[C@H](C)OC(=O)CCCCCCCCC/C=C/CCCCCC [coixenolide]
- Growth of mouse Ehrlich ascites tumor ([2]; Ukita 1961): inhibit the growth
- Anti-tumor activity ([2]; pure compound): strong anti-tumor activity

Compound: O=P1(N(CCCl)CCCl)NCCCO1 (stereo not shown) [CTX, cyclophosphamide]
- Leucocyte number (leukocyte [3]; time 0): 62 × 100/mm^3
- Leucocyte number (leukocyte [3]; time 3): 49 × 100/mm^3
- Leucocyte number (leukocyte [3]; time 6): 45 × 100/mm^3
- Leucocyte number (leukocyte [3]; time 9): 41 × 100/mm^3
- Leucocyte number (leukocyte [3]; time 12): 41 × 100/mm^3
- Leucocyte number (leukocyte [3]; time 15): 42 × 100/mm^3
- Leucocyte number (leukocyte [3]; time 18): 45 × 100/mm^3
- Leucocyte number (leukocyte [3]; time 21): 47 × 100/mm^3
- Leucocyte number (leukocyte [3]; time 24): 49 × 100/mm^3
- Inhibition (%) (human hepatoma (QGY)): 91.00%
- Tumor (human hepatoma (QGY)): 0.28 ± 0.08 g
- Colony No. (melanoma (B16); Table 4): 18.80 ± 8.50
- Inhibition (%) (melanoma (B16); Table 4): 95.90%
- Colony No. (melanoma (B16); Table 5): 8.0 ± 6.22
- Inhibition (%) (melanoma (B16); Table 5): 98.67%
- Colony No. (melanoma (B16); Table 6): 0
- Inhibition (%) (melanoma (B16); Table 6): 100%
- Inhibition (%) ([4]; 10 mg iv × 2): 38.58%
- Weight (tumor) ([4]; 10 mg iv × 2): 2.07 ± 1.11 g
- Inhibition (%) ([4]; 30 mg iv × 7): 88.13%
- Weight (tumor) ([4]; 30 mg iv × 7): 0.4 ± 0.15 g
- Inhibition (%) (sarcoma (S-180); 30 mg/kg ip × 2 (1, 3)): 39.4%

Compound: CN(C)/N=N/c1[nH]cnc1C(N)=O [DTIC, dacarbazine]
- Inhibition (%) [5]: 94.94%
- Tumor [5]: 0.18 ± 0.04
